Test results as given in patent US12582650B2, “IRAK4 kinase inhibitor and preparation method therefor” (ZHUHAI YUFAN BIOTECHNOLOGIES CO., LTD, priority 2019, dated 2026).

Biological target: T1, IRAK4 (Homo sapiens, UniProt Q9NWZ3)
T1 construct: purchased Carna 09-145
T1 sequence (Q9NWZ3 1-460): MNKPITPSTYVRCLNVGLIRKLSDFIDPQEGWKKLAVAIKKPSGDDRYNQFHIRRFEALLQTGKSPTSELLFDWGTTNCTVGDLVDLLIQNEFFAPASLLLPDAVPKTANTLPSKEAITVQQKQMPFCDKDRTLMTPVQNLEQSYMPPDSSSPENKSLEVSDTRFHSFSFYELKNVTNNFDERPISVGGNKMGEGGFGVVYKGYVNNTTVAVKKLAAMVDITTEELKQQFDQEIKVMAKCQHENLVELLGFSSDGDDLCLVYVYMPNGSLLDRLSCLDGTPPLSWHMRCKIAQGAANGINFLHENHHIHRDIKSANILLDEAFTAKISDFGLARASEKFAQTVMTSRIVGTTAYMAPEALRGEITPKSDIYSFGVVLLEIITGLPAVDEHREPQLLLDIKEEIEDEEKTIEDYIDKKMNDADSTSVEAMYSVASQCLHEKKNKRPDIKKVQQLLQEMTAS
Experiment: Enzymatic experiment for IRAK4 kinase inhibitor (HTRF KinEASE-STK, phosphorylation of STK1)
Type: biochemical
Conditions: 6 nM IRAK4, 0.4 uM STK1, 80 uM ATP, 37° C. for 90 min, read-out: Relative IC50
Method: Experimental materials: IRAK4 recombinant human […], purchased from Carna (Cat #09-145); ATP, purchased from Sigma (Cat #A7699-5G); Compound 26, purchased from Merck Millipore (Cat #531237); and HTRF KinEASE-STK Si kit, purchased from Cisbio (Cat #62ST1PEC).
Experimental method: Phosphorylation of STK1 can be detected using an HTRF assay kit. The experimental reaction was carried out in a 384-well plate (Greiner, Cat #784075) with a total reaction system of 20 uL. The reaction system mainly comprised 1× kinase buffer, […], […], 0.4 uM STK1 and 80 uM ATP. The target product prepared in Example 1 was serially diluted with DMSO at 10 concentration points, and transferred to an experimental assay plate at 100 nL. The reaction was started after 6 nM IRAK4 was added and stopped by adding a detection reagent (0.25×STK Antibody-Cryptate, 25 nM Streptavidin-XL665) after being in process at 37° C. for 90 min. After standing at room temperature for 60 min, an FRET signal was read on a Spark 10M or envision plate reader. (HTRF 665/615=signal value at 665 nm/signal value at 615 nm).
Data analysis: signal ratio (665/615) was converted to a percent rejection. Inhibition %=(max−sample)/(max−min)×100. “min” represents a ratio of signal values (665/615) for control well without enzyme, and “max” represents a ratio of signal values (665/615) for control well with […]. […] values for compounds were calculated by XLFit in the Excel. Y=Bottom+(Top−Bottom)/(1+(IC50/X)^HillSlope) Equation: […]

SMILES	IC50 [nM]
CN(C)C1CCC(c2cn3c(cnc4[nH]cc(C5CCOCC5)c43)n2)CC1 (centres unmarked)	< 100
c1[nH]c2ncc3nc(C4CCNCC4)cn3c2c1C1CCOCC1	< 100
NC1CCC(c2cn3c(cnc4[nH]cc(C5CCOCC5)c43)n2)CC1 (centres unmarked)	< 100
c1[nH]c2ncc3nc(C4CCCCC4)cn3c2c1C1CCOCC1	< 100
CC1CC(c2cn3c(cnc4[nH]cc(C5CCOCC5)c43)n2)CCN1 (centres unmarked)	100 to 1000
c1[nH]c2ncc3nc(C4CCC(N5CCOCC5)CC4)cn3c2c1C1CCOCC1 (centres unmarked)	100 to 1000
CC1CNCCC1c1cn2c(cnc3[nH]cc(C4CCOCC4)c32)n1 (centres unmarked)	< 100
c1[nH]c2ncc3nc(C4CCCNC4)cn3c2c1C1CCOCC1 (centres unmarked)	< 100
CN1CCC(c2cn3c(cnc4[nH]cc(C5CCOCC5)c43)n2)CC1	100 to 1000
CCN1CCC(c2cn3c(cnc4[nH]cc(C5CCOCC5)c43)n2)CC1	100 to 1000
CC(=O)N1CCC(c2cn3c(cnc4[nH]cc(C5CCOCC5)c43)n2)CC1	> 1000
c1[nH]c2ncc3nc(C4CCN(C5COC5)CC4)cn3c2c1C1CCOCC1	> 1000
CN1CCC(c2cn3c(cnc4[nH]cc(C5CCOCC5)c43)n2)C1 (centres unmarked)	100 to 1000
c1[nH]c2ncc3nc(C4CCC5(CC4)CNC5)cn3c2c1C1CCOCC1	< 100
CN1CCC(c2cn3c(cnc4[nH]cc(C5CCC(C(N)=O)CC5)c43)n2)CC1 (centres unmarked)	> 1000
c1[nH]c2ncc3nc(C4CCOCC4)cn3c2c1C1CCOCC1	100 to 1000
c1[nH]c2ncc3[nH]c(C4CCCCC4)nc3c2c1C1CCOCC1	100 to 1000
Cn1c(C2CCCCC2)nc2c3c(C4CCOCC4)c[nH]c3ncc21	100 to 1000
NC1CCC(c2nc3c(cnc4[nH]cc(C5CCOCC5)c43)[nH]2)CC1 (centres unmarked) [drawing 311]	< 100
NC1CCC(c2nc3c(cnc4[nH]cc(C5CCOCC5)c43)[nH]2)CC1 (centres unmarked) [drawing 312]	< 100
